Results: patent US6579856B2, “Inhibition of stress activated protein kinase (SAPK) pathway and sensitization of cells to cancer therapies” (priority 1997, dated 2003)
Positions count from the first letter of the chain named. Names may count otherwise. Like-named read-outs stand apart in the source and are kept apart here.

Key:
Format in all cases: cell-based
T98G cells = assay: PCR-stop assay of cisplatin-DNA adduct formation and repair
Description: The PCR-stop assay was used to quantitate cisplatin-DNA adduct formation and subsequent repair (Horton et al., Nucl. Acids. Res. 23:3810-3815 (1995), which is incorporated herein by reference). The assay is based on the observation that the efficiency of amplification of cisplatin-treated DNA is inversely proportional to the degree of platination. […] DNA was amplified quantitatively to produce a 2.7 kb product of the hypoxanthine phosphoribosyl transferase (HPRT) gene and a 0.15 kb nested fragment of the HPRT gene using ^32P-end labeled primers: 5′-[…]-3′(5′ primer; SEQ ID NO: 3) and 5′-[…]-3′ (3′ primer; SEQ ID NO: 4), for the 2.7 kb product; 5′-[…]-3′(5′ nested primer; SEQ ID NO: 5) and the above 3′ primer (SEQ ID NO: 4) for the 0.15 kb product. The 0.15 kb product contains undetectable levels of DNA damage under the present conditions and serves as an internal PCR control and as the basis for normalization of the amount of amplification of the 2.7 kb product. The number of lesions per 2.7 kb product was calculated as […] (cpm damaged DNA/cpm undamaged DNA).
As a control, […], which inhibits DNA repair by inhibiting ADP-ribosylation, was added with cisplatin.

SAPK (JNK) = SAPK (JNK) assay in T98G cells; conditions: for increase in SAPK (JNK) activity: T98G cells incubated with 250, 500 or 1000 μM for 1 hr
Experimental: T98G glioblastoma cells were maintained in Dulbecco's modified minimal medium containing 5% fetal calf serum. SAPK (JNK) assays were performed as described by Hibi et al. (supra, 1993). c-jun and dn-jun expression were quantitated using the methods and antibodies described by Grover-Bardwick et al. (Carcinogenesis 15:1667-1674 (1994), which is incorporated herein by reference).
Cisplatin, but not transplatin, forms covalent crosslinks between adjacent guanine or guanine-adenine residues. […] As a control, UV-C irradiation was performed and similarly produced a dose-dependent increase in SAPK activity.

T98G glioblastoma cells = assay: Cell viability (MTS method), T98G cells; conditions: for IC50: 1 hr exposure, viability 5 days later, read-out: IC-50 for cisplatin
Experimental: (§1) Cell viability was determined using the MTS method (Promega Corp.; Madison Wis.), measuring the […] of the formazan product 1 hr after adding the MTS (Gjerset et al., Mol. Carcin. 14:275-285 (1995), which is incorporated herein by reference). Cells were seeded into 96 well plates. After 24 hr, various concentrations of cisplatin or transplatin was added and incubation was continued for 1 hr. Medium was then removed and replaced with fresh medium and cell viability was determined 5 days later. Experiments were performed in quadruplicate; cell viability is expressed as the ratio of the viable cells following treatment to viable untreated cells.
The IC-50 for cisplatin was determined using the T98G cells that express dn-jun, control T98G cells and T98G cells stably transfected with the corresponding empty vector. […] In comparison, expression of dn-jun in T98G cells decreased the IC-50 to 21 μM, which represents a 7-fold increase in sensitivity.

[1] = test system: PC3 prostate carcinoma cells; assay: Cell viability, PC3 cells; conditions: for IC50: read-out: IC-50 (cisplatin)
Experimental: as §1
PC3 prostate carcinoma cells were genetically modified to express dn-jun or a second dominant negative c-jun, Tam-67, both of which were under control of the metallothionein promoter (Brown et al., Oncogene 9:791-799 (1994), which is incorporated herein by reference).

[2] = test system: MCF-7 breast cancer cells; assay: Cell viability, MCF-7 cells; conditions: MCF-7 cells expressing dn-jun vs parental cells
Experimental: as §1
(§2) In other experiments, U87 human glioblastoma cells and MCF-7 breast cancer cells were stably transfected with the vector expressing dn-jun and clonal lines were isolated.

[3] = test system: U87 human glioblastoma cells; assay: Cell viability, U87 cells; conditions: U87 cells expressing dn-jun vs parental U87 cells
Experimental: as §1, §2

[4] = test system: phosphorylation-dependent activation of transcription; assay: Phosphorylation-dependent activation of transcription in dn-jun transfected T98G cells; conditions: T98G cells stably expressing dn-jun
Description: (§3) T98G cells were stably transfected with a cDNA encoding the dn-jun (Smeal et al., supra, 1991; Smeal et al., supra, 1992) and clonal lines were obtained. Expression of dn-jun had no effect on basal AP-1 activity or on the enzyme activity of SAPK. In contrast, dn-jun expression inhibited phosphorylation-dependent activation of transcription.

AP-1 = assay: Basal AP-1 activity in dn-jun transfected T98G cells; conditions: T98G cells stably expressing dn-jun
Description: as §3

[5] = ABZ added with cisplatin, 6 hr recovery period

Nc1ccc(-c2ccc(N)cc2N)cc1 [ABZ, 2-aminobenzidine]
DNA repair (T98G cells; [5]): no repair was observed | level of DNA damage (T98G cells; [5]): substantially increased

N.N.[Cl][Pt][Cl] [cisplatin]
increase in SAPK (JNK) activity (SAPK (JNK)): up to 10 fold | IC50 (T98G glioblastoma cells; T98G cells expressing dn-jun): 21 µM | IC50 (T98G glioblastoma cells; control (untransfected) T98G cells): 147 µM | DNA damage (T98G cells; DNA isolated immediately after 1 hr treatment with 0, 100 or 200 μM): increasing levels of DNA damage | IC50 ([1]; PC3 cells expressing dn-jun): 18 µM | IC50 ([1]; control PC3 cells): 109 µM

N.N.[Cl][Pt+2][Cl] [transplatin]
increase in SAPK (JNK) activity (SAPK (JNK)): no effect was observed

B1: dn-jun: dominant negative mutant of c-jun containing alanine-63 and alanine-73 substitutions; cannot be phosphorylated by SAPK (protein, UniProt P05412 1-331, looked up, variant S63A S73A)
Transcription factor Jun: MTAKMETTFYDDALNASFLPSESGPYGYSNPKILKQSMTLNLADPVGSLKPHLRAKNSDLLTAPDVGLLKLAAPELERLIIQSSNGHITTTPTPTQFLCPKNVTDEQEGFAEGFVRALAELHSQNTLPSVTSAAQPVNGAGMVAPAVASVAGGSGSGGFSASLHSEPPVYANLSNFNPGALSSGGGAPSYGAAGLAFPAQPQQQQQPPHHLPQQMPVQHPRLQALKEEPQTVPEMPGETPPLSPIDMESQERIKAERKRMRNRIAASKCRKRKLERIARLEEKVKTLKAQNSELASTANMLREQVAQLKQKVMNHVNSGCQLMLTQQLQTF
enzyme activity of SAPK (SAPK (JNK); T98G cells stably expressing dn-jun): no effect | increased sensitivity to cisplatin [2]: 3 fold | increased sensitivity to cisplatin [3]: 2.5 fold | phosphorylation-dependent activation of transcription [4]: inhibited | basal AP-1 activity (AP-1): no effect | increased sensitivity to cisplatin ([1]; PC3 cells expressing dn-jun vs control cells): greater than 7 fold | increased sensitivity to cisplatin ([1]; PC3 cells expressing dn-jun vs vector control cells): greater than 9 fold

B2: c-jun: c-jun transcription factor, the SAPK substrate, with increased expression in T98G cells (protein, UniProt P05412 1-331, looked up)
Transcription factor Jun: B1 Transcription factor Jun with A63S, A73S
viability of cells to cisplatin exposure (T98G glioblastoma cells; increased expression of c-jun in T98G cells): somewhat increased
